Reference: paper PMC8037142, “Design, Synthesis, Molecular Modeling and Antitumor Evaluation of Novel Indolyl-Pyrimidine Derivatives with EGFR Inhibitory Activity” (Molecules, 2021)
Where two headings read alike, the source gives them in different places.

What was measured:
[1] = test system: HepG2 liver cancer cell line; assay: Resazurin Cell Growth Inhibition Assay, HepG2; assay type: cell-based, human; details: HepG2, 48 h, mean ± SD of three experiments, read-out: Cytotoxic Activity IC50
Procedure: (§1) Compounds 1–4 were assessed for their in vitro cytotoxic activity against three human cell lines i.e., breast (MCF-7), liver (HepG2), colon (HCT-116) cancer cell lines as well as in lung fibroblast (WI38) normal cell line using the Resazurin Cell Growth Inhibition Assay. Both erlotinib and 5-Fluorouracil (5-FU) were used as reference drugs. Concentrations of the tested compounds that give about 50% inhibition of cell viability (IC50, mean of triplicate) in µM were obtained. […] However, if replaced by a hydrazone substituent, a more prominent efficacy toward the three cancer cell lines was observed. […] The most promising in vitro antiproliferative activity was obtained when the hydrazone is bearing electron-withdrawal groups i.e., 4-chlorobenzylidene moiety (compound 3f), 3,4-dichloro benzylidene moiety (compound 3g) and 4-fluorobenzylidene moiety (compound 3h) compared to the standard treatment (Table 1, Figure 5). The inhibitory activity of compounds was reduced when the hydrazone group is bearing electron donating groups i.e., 4-methyl group (compound 3b), 2-methoxy group (compound 3c), 4-hydroxy (compound 3d) and 4-dimethylamino group (compound 3e). The trend of antiproliferative activity of compounds […] against all tested cell lines has the following descending order: (3g > 3h >3f >3a >3b > 3c > 3d > 3e). […]. […] This is mainly because this compound has the highest lipophilicity as well as less electron density as it has 2-Cl atoms (more electronegativity) on the indolyl pyrimidine-thiazolidinone.
(§2) In vitro cytotoxicity was measured according to the Resazurin Cell Growth Inhibition Assay Alamar Blue or Resazurin (Promega, Mannheim, Germany) reduction assay was used to assess the cytotoxicity of the studied samples. The assay tests cellular viability and mitochondrial function. Briefly, adherent cells were grown in tissue culture flasks, and then harvested by treating the flasks with 0.025% trypsin and 0.25 mM EDTA for 5 min. Once detached, cells were washed, counted, and an aliquot (5 × 10^3 cells) were placed in each well of a 96-well cell culture plate in a total volume of […]. Cells were allowed to attach overnight and then treated with samples. […]. Each assay was performed as triplicates. […] […]. The viability was compared based on a comparison with untreated cells. IC50 (on cancer cells) were the concentration of sample required to inhibit 50% of the cell proliferation and were calculated from a calibration curve by a linear regression using Microsoft Excel.

[2] = test system: HCT-116 colon cancer cell line; assay: Resazurin Cell Growth Inhibition Assay, HCT-116; assay type: cell-based, human; details: HCT-116, 48 h, mean ± SD of three experiments, read-out: Cytotoxic Activity IC50
Procedure: as §1, §2

[3] = Resazurin Cell Growth Inhibition Assay, WI38 normal cells; assay type: cell-based; details: human, WI38 normal lung fibroblast cells, WI-38 normal cells, mean ± SD of three experiments, read-out: Cytotoxic Activity IC50
Procedure: as §1, §2

[4] = test system: MCF-7 breast cancer cell line; assay: Resazurin Cell Growth Inhibition Assay, MCF-7; assay type: cell-based; details: Homo sapiens, MCF7; MCF-7, 48 h, mean ± SD of three experiments; read-out: Cytotoxic Activity IC50
Procedure: as §1, §2

[5] = test system: MCF-7, HepG2 and HCT-116 cancer cell lines; assay: Resazurin assay, range over the three cancer cell lines; assay type: cell-based; details: Homo sapiens; range over MCF-7, HepG2 and HCT-116; read-out: IC50 range against the cancer cell lines
Procedure: Compounds 1–4 were assessed for their in vitro cytotoxic activity against three human cell lines i.e., breast (MCF-7), liver (HepG2), colon (HCT-116) cancer cell lines as well as in lung fibroblast (WI38) normal cell line using the Resazurin Cell Growth Inhibition Assay. Both erlotinib and 5-Fluorouracil (5-FU) were used as reference drugs. Concentrations of the tested compounds that give about 50% inhibition of cell viability (IC50, mean of triplicate) in µM were obtained. […] However, if replaced by a hydrazone substituent, a more prominent efficacy toward the three cancer cell lines was observed. […] The most promising in vitro antiproliferative activity was obtained when the hydrazone is bearing electron-withdrawal groups i.e., 4-chlorobenzylidene moiety (compound 3f), 3,4-dichloro benzylidene moiety (compound 3g) and 4-fluorobenzylidene moiety (compound 3h) compared to the standard treatment (Table 1, Figure 5). […]
In vitro cytotoxicity was measured according to the Resazurin Cell Growth Inhibition Assay Alamar Blue or Resazurin (Promega, Mannheim, Germany) reduction assay was used to assess the cytotoxicity of the studied samples. […] Once detached, cells were washed, counted, and an aliquot (5 × 10^3 cells) were placed in each well of a 96-well cell culture plate in a total volume of 100 mL. […]

[6] = test system: Ehrlich ascites carcinoma (EAC); assay: In vivo antitumor assay in EAC tumor bearing mice; details: 0.5 mg/mouse for nine days; for Tumor Volume: ascitic fluid; for MST (mean survival time): mean of two experiments; for Viable Tumor Cell Count: trypan blue
Procedure: The antitumor activity of these compounds was assessed by the change in tumor volume, viable cell count, mean survival time (MST) and % increase in lifespan (% ILS) of the EAC tumor bearing mice and 5-FU (standard treatment). The mean survival time (MST) and % increase in lifespan (% ILS) of EAC tumor bearing mice, as well as the influence of these compounds on viable tumor cells and the tumor volume, are shown in Table 2. The hematological profile of these mice was also assessed in comparison with the standard treatment with 5-FU, and no obvious effect on RBCs or WBCs was observed. […] MST = (day of first death + day of last death)/2 %ILS = [(MST of treated group/MST of control group) − 1] × 100 […]
In vivo antitumor evaluation was carried out as previously reported (see Supplementary Materials).
2. Biological Evaluation Details: a) In vivo antitumor assay: Materials . Adult Swiss male mice (weighing 20 -25 g) were obtained from the Department of Pharmacology, Faculty of Pharmacy, Mansoura University, Egypt.
They were kept in microlon boxes at temperature 25 ± 2 °C with a regular 12 hrs light/dark cycle. In addition, food and water were available. EAC cells (procured from NCI, Cairo, Egypt) were harvested and prepared, then their total number was counted.
Procedure. 7 Groups of mice ( n = 4) were used.
Group 1: Negative control (no EAC cells) - received normal saline.
Group 2: Positive control (EAC cells) - received normal saline.
Group 3: EAC cells - treated with compound 3g (0.5 mg/mouse).
Group 4: EAC cells - treated with compound 4f (0.5 mg/mouse).
Group 5: EAC cells - treated with compound 4g (0.5 mg/mouse).
Group 6: EAC cells - treated with compound 4h (0.5 mg/mouse).
Group 7: EAC cells - treated with 5-fluorouracil (0.5 mg/mouse).
2 x 10^6 EAC cells were injected intraperitoneally in each mouse (groups 2-7). After […]
for nine days, then blood samples were withdrawn for assessment of blood count.
Determination of tumor volume
The ascetic fluid was gathered from the peritoneal cavity and its volume was determined. It was then centrifuged, and the packed tumor cell volume was measured.
Determination of viable tumor cell count
100 μL Sample of EAC cells (from three mice per group) was utilized and diluted twenty times with saline. Cells were stained with trypan blue, viable cells are not stained, while the dead ones are stained. The number of viable cells was calculated.

EGFR kinase = EGFR kinase (Homo sapiens, UniProt P00533); assay: In vitro EGFR inhibitory assay (EnzyChrom Kinase Assay Kit EKIN-400); details: for inhibition at 10 µM: read-out: % Inhibition of EGFR
Sequence of EGFR kinase (P00533 25-1210): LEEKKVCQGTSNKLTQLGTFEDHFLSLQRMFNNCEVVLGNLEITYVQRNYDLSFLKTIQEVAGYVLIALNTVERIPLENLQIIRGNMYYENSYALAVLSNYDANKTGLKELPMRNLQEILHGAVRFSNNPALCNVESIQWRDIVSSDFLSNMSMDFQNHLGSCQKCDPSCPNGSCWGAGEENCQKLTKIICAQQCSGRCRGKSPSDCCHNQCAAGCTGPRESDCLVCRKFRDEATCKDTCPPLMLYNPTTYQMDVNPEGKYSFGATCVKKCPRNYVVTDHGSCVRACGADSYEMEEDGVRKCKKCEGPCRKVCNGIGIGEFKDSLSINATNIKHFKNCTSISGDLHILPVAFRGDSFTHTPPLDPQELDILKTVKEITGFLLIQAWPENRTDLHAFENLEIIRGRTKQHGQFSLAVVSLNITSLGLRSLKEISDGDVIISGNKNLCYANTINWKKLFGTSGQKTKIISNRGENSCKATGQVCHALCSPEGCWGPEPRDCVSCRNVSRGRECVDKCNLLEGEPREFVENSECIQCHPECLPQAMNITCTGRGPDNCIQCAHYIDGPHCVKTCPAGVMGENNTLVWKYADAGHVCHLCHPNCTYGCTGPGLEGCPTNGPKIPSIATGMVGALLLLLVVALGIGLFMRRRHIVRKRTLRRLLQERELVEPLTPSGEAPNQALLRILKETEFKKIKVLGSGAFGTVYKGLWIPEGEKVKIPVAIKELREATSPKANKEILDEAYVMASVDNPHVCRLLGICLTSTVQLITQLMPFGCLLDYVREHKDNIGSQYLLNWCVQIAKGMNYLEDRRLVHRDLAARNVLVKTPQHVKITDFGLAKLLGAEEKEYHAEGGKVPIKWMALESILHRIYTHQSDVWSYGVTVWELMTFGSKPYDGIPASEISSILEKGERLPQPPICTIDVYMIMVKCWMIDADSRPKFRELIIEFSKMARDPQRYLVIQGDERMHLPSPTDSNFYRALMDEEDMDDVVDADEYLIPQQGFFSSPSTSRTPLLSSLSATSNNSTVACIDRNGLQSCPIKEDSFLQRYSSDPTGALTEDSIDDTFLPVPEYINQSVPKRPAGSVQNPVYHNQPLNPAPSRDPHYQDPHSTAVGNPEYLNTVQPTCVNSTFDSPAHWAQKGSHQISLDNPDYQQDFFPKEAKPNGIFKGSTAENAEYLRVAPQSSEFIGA
Procedure: A first-generation EGFR inhibitor, erlotinib, was used as standard treatment. […] IC50 for these compounds was determined. […] In addition, 20 µL reaction mixture containing the EGFR kinase, ATP, and substrate in the provided assay buffer. Set up a blank control that contains ATP and substrate but no enzyme. Incubate at desired temperature for 30 min. Prepare 900 µL 10µM (adenosine diphosphate) ADP premix by mixing 3 µL of 3 mM standard and 897 µL distilled water. Transfer 20 µL standards into separate wells of the plate. Prepare enough working reagent for each well. Add 40 µL working reagent to each assay well. Tap plate to mix. Incubate at room temperature for 10 min. Read fluorescence intensity at λexc = 530nm and λem = 590 nm, and then calculate kinase activity.

SMILES	IC50 ([1]; Homo sapiens) [µM]	IC50 ([2]; Homo sapiens) [µM]	IC50 at 48 h [3] [µM]	IC50 [4] [µM]	melting point [°C]	IC50 [5] [µM]	IC50 [1] [µM]	IC50 [2] [µM]	Tumor Volume [6] [mL]	MST (mean survival time) [6] [days]	Viable Tumor Cell Count [6]	inhibition at 10 µM (EGFR kinase) [%]	IC50 (EGFR kinase) [µM]
CCOC(=O)C1=C(C)NC(=S)NC1c1c[nH]c2ccccc12 (stereo not shown) [Compound 1, Ethyl 4-(1H-indol-3-yl)-6-methyl-2-thioxo-1,2,3,4-tetrahydropyrimidine-5-Carboxylate]	28.8 ± 2.25	27.2 ± 1.11	30 ± 1.2	26.8 ± 2.2	245 to 247	26.8 to 28.2							
CC1=C(C(=O)NN)C(c2c[nH]c3ccccc23)NC(=S)N1 (stereo not shown) [Compound 2, 4-(1H-indol-3-yl)-6-methyl-2-thioxo-1,2,3,4-tetrahydropyrimidine-5-carbohydrazide]	25.5 ± 2.17	22.2 ± 1.5	40.5 ± 2.25	21.6 ± 1.8	208 to 210	21.6 to 25.5							
CC1=C(C(=O)NN2C(=O)CSC2c2ccc(Cl)c(Cl)c2)C(c2c[nH]c3ccccc23)NC(=S)N1 (stereo not shown) [Compound 4g, N-(2-(3,4-dichlorophenyl)-4-oxothiazolidin-3-yl)-4-(1H-indol-3-yl)-6-methyl-2-thioxo-1,2,3,4-tetrahydropyrimidine-5-carboxamide]	5.02	6.6	16.3 ± 3.21	5.1 ± 1.14			6.6 ± 1.4	5.02 ± 1.19	0.89	46	21.70 10^6/mL	79	
CC1=C(C(=O)NN2C(=O)CSC2c2ccc(F)cc2)C(c2c[nH]c3ccccc23)NC(=S)N1 (stereo not shown) [Compound 4h, N-(2-(4-fluorophenyl)-4-oxothiazolidin-3-yl)-4-(1H-indol-3-yl)-6-methyl-2-thioxo-1,2,3,4-tetrahydropyrimidine-5-carboxamide]	7.5 ± 1.29	7.02 ± 0.46	18.1 ± 2.06	6.6 ± 1.28					1.18	40	28.50 10^6/mL	70	0.39 ± 0.02
